Measurements as given in publication PMC3720801, “A Proline-Hinge Alters the Characteristics of the Amphipathic α-helical AMPs” (PLoS ONE, 2013).
In brackets after ≈: the same amount, converted by molar mass. Peptide text beside a SMILES is read from it.

Tests used:
[1] = test system: Proteus vulgaris (KCTC 2433); settings: broth microdilution, 1% bactopeptone, 5×10^3 CFU/ml, 10 h at 37°C, OD 620 nm, triplicate
[2] = test system: Escherichia coli (KCTC 1682); settings: broth microdilution, 1% bactopeptone, 5×10^3 CFU/ml, 10 h at 37°C, OD 620 nm, triplicate
[3] = test system: Salmonella typhimurium (KCTC 1926); settings: broth microdilution, 1% bactopeptone, 5×10^3 CFU/ml, 10 h at 37°C, OD 620 nm, triplicate
[4] = test system: Saccharomyces cerevisiae (KCTC 7296); settings: MTT assay, YPD pH 5.5, 24 h at 28°C, absorbance 570 nm, triplicate
[5] = test system: Trichosporon beigelii (KCTC 7707); assay: Antifungal MTT assay MIC; type: cell-based; settings: YPD pH 5.5, 24 h at 28°C, absorbance 570 nm, triplicate
[6] = test system: Candida albicans (KCTC 7270); settings: MTT assay, YPD pH 5.5, 24 h at 28°C, absorbance 570 nm, triplicate
[7] = test system: Bacillus subtilis (KCTC 1918); settings: broth microdilution, 1% bactopeptone, 5×10^3 CFU/ml, 10 h at 37°C, OD 620 nm, triplicate
[8] = test system: Staphylococcus epidermidis (KCTC 1917); settings: broth microdilution, 1% bactopeptone, 5×10^3 CFU/ml, 10 h at 37°C, OD 620 nm, triplicate
S. aureus (KCTC 1621) = settings: broth microdilution, 1% bactopeptone, 5×10^3 CFU/ml, 10 h at 37°C, OD 620 nm, triplicate
[9] = test system: Pseudomonas aeruginosa (KCTC 1637); settings: broth microdilution, 1% bactopeptone, 5×10^3 CFU/ml, 10 h at 37°C, OD 620 nm, triplicate

Row | Structure (SMILES) | MIC G(−) PV [1] [µM] | MIC G(−) EC [2] [µM] | MIC G(−) ST [3] [µM] | MIC Yeast SC [4] [µM] | MIC Yeast TB [5] [µM] | MIC Yeast CA [6] [µM] | MIC G(+) BS [7] [µM] | MIC G(+) SE [8] [µM] | MIC G(+) SA (S. aureus (KCTC 1621)) [µM] | MIC G(−) PA [9] [µM]
1 | CC[C@H](C)[C@H](NC(=O)[C@H](CCCCN)NC(=O)[C@H](CO)NC(=O)[C@H](Cc1ccccc1)NC(=O)[C@H](CC(C)C)NC(=O)[C@H](CCCCN)NC(=O)[C@H](CCC(=O)O)NC(=O)[C@H](CC(C)C)NC(=O)[C@H](CCCNC(=N)N)NC(=O)[C@H](CCCCN)NC(=O)[C@H](Cc1ccccc1)NC(=O)[C@@H](NC(=O)[C@H](CCCCN)NC(=O)[C@H](CCCCN)NC(=O)[C@H](C)N)C(C)C)C(=O)N[C@@H](CCC(N)=O)C(=O)N[C@@H](CC(N)=O)C(=O)N[C@@H](Cc1c[nH]c2ccccc12)C(=O)N[C@@H](CCCCN)C(N)=O [Anal 1] (H-AKKVFKRLEKLFSKIQNWK-NH2) | 1.56 (≈ 3.73 µg/mL) | 1.56 (≈ 3.73 µg/mL) | 0.39 (≈ 0.932 µg/mL) | 12.5 (≈ 29.9 µg/mL) | 6.25 (≈ 14.9 µg/mL) | 12.5 (≈ 29.9 µg/mL) | 1.56 (≈ 3.73 µg/mL) | 0.78 (≈ 1.86 µg/mL) | 3.13 (≈ 7.48 µg/mL) | 6.25 (≈ 14.9 µg/mL)
2 | CC[C@H](C)[C@H](NC(=O)[C@H](CCCCN)NC(=O)[C@H](CO)NC(=O)[C@H](Cc1ccccc1)NC(=O)[C@H](CC(C)C)NC(=O)[C@H](CCCCN)NC(=O)[C@H](CCC(=O)O)NC(=O)[C@H](CC(C)C)NC(=O)[C@H](CCCNC(=N)N)NC(=O)[C@H](CCCCN)NC(=O)[C@H](Cc1ccccc1)NC(=O)[C@@H](NC(=O)[C@H](CCCCN)NC(=O)[C@H](CCCCN)NC(=O)[C@H](C)N)C(C)C)C(=O)N[C@@H](Cc1c[nH]c2ccccc12)C(=O)N[C@@H](CC(N)=O)C(=O)N[C@@H](CC(=O)O)C(=O)N[C@@H](CCCCN)C(N)=O [Anal 2] (H-AKKVFKRLEKLFSKIWNDK-NH2) | 1.56 (≈ 3.71 µg/mL) | 1.56 (≈ 3.71 µg/mL) | 0.78 (≈ 1.85 µg/mL) | 12.5 (≈ 29.7 µg/mL) | 6.25 to 12.5 | 12.5 (≈ 29.7 µg/mL) | 1.56 (≈ 3.71 µg/mL) | 1.56 (≈ 3.71 µg/mL) | 3.13 (≈ 7.44 µg/mL) | 6.25 (≈ 14.9 µg/mL)
3 | CC[C@H](C)[C@H](NC(=O)[C@H](CCCCN)NC(=O)[C@H](CO)NC(=O)[C@H](Cc1ccccc1)NC(=O)[C@H](CC(C)C)NC(=O)[C@H](CCCCN)NC(=O)[C@H](CCC(=O)O)NC(=O)[C@H](CC(C)C)NC(=O)[C@H](CCCNC(=N)N)NC(=O)[C@H](CCCCN)NC(=O)[C@H](Cc1ccccc1)NC(=O)[C@@H](NC(=O)[C@H](CCCCN)NC(=O)[C@H](CCCCN)NC(=O)[C@H](C)N)C(C)C)C(=O)N[C@@H](Cc1c[nH]c2ccccc12)C(=O)N[C@@H](CC(N)=O)C(=O)N[C@@H](Cc1c[nH]c2ccccc12)C(=O)N[C@@H](CCCCN)C(N)=O [Anal 3] (H-AKKVFKRLEKLFSKIWNWK-NH2) | 1.56 (≈ 3.82 µg/mL) | 0.78 (≈ 1.91 µg/mL) | 0.39 (≈ 0.955 µg/mL) | 3.13 to 6.25 | 3.13 (≈ 7.67 µg/mL) | 6.25 (≈ 15.3 µg/mL) | 0.78 (≈ 1.91 µg/mL) | 0.78 (≈ 1.91 µg/mL) | 1.56 (≈ 3.82 µg/mL) | 3.13 (≈ 7.67 µg/mL)
4 | CC[C@H](C)[C@H](NC(=O)[C@H](CCCCN)NC(=O)[C@H](CO)NC(=O)[C@H](Cc1ccccc1)NC(=O)[C@H](CO)NC(=O)[C@H](CCCCN)NC(=O)[C@H](CCC(=O)O)NC(=O)[C@H](CC(C)C)NC(=O)[C@H](CCCNC(=N)N)NC(=O)[C@H](CCCCN)NC(=O)[C@H](Cc1ccccc1)NC(=O)[C@@H](NC(=O)[C@H](CCCCN)NC(=O)[C@H](CCCCN)NC(=O)[C@H](C)N)C(C)C)C(=O)N[C@@H](CCC(N)=O)C(=O)N[C@@H](CC(N)=O)C(=O)N[C@@H](CC(=O)O)C(=O)N[C@@H](CCCCN)C(N)=O [Anal 4] (H-AKKVFKRLEKSFSKIQNDK-NH2) | 6.25 (≈ 14.3 µg/mL) | 12.5 (≈ 28.7 µg/mL) | 1.56 (≈ 3.58 µg/mL) | 50 (≈ 115 µg/mL) | 50 (≈ 115 µg/mL) | 50 to 100 | 6.25 (≈ 14.3 µg/mL) | 12.5 (≈ 28.7 µg/mL) | >12.5 | >12.5
